Assay results published in PubChem BioAssay (NCI).
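Method: 48-hour compound exposure of cells in 96-well plates, five concentrations, linear interpolation of endpoints. GI50 is the concentration that inhibits growth by half. TGI marks complete inhibition of growth.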

Experiments:
Test in all cases: inhibition of tumour cell growth, NCI panel, 48 h
COLO 205 colon = system: COLO 205 colon
U251 CNS = system: U251 CNS
RPMI-8226 leukemia = system: RPMI-8226 leukemia
MDA-MB-435 = system: MDA-MB-435
HT29 colon = system: HT29 colon
SK-MEL-28 melanoma = system: SK-MEL-28 melanoma
CAKI-1 renal = system: CAKI-1 renal
BT-549 breast = system: BT-549 breast
PC-3 prostate = system: PC-3 prostate
KM12 colon = system: KM12 colon
OVCAR-5 ovarian = system: OVCAR-5 ovarian
EKVX NSCLC = system: EKVX NSCLC
M14 melanoma = system: M14 melanoma
SNB-19 CNS = system: SNB-19 CNS
T-47D breast = system: T-47D breast
MALME-3M melanoma = system: MALME-3M melanoma
NCI/ADR-RES ovarian = system: NCI/ADR-RES ovarian
SF-539 CNS = system: SF-539 CNS
SK-MEL-2 melanoma = system: SK-MEL-2 melanoma
SF-295 CNS = system: SF-295 CNS
SK-MEL-5 melanoma = system: SK-MEL-5 melanoma
SW-620 colon = system: SW-620 colon
786-0 renal = system: 786-0 renal
HCT-15 colon = system: HCT-15 colon
SK-OV-3 ovarian = system: SK-OV-3 ovarian
A498 renal = system: A498 renal
A549 NSCLC = system: A549 NSCLC
NCI-H460 lung = system: NCI-H460 lung
K-562 leukemia = system: K-562 leukemia
OVCAR-3 ovarian = system: OVCAR-3 ovarian
SF-268 CNS = system: SF-268 CNS
SN12C renal = system: SN12C renal
NCI-H23 lung = system: NCI-H23 lung
OVCAR-8 ovarian = system: OVCAR-8 ovarian
UACC-62 melanoma = system: UACC-62 melanoma
NCI-H522 lung = system: NCI-H522 lung
MDA-MB-231 breast = system: MDA-MB-231 breast
HOP-62 NSCLC = system: HOP-62 NSCLC
IGROV1 ovarian = system: IGROV1 ovarian
HS 578T breast = system: HS 578T breast
ACHN renal = system: ACHN renal
MOLT-4 leukemia = system: MOLT-4 leukemia
HCC-2998 colon = system: HCC-2998 colon
MCF7 breast = system: MCF7 breast
UO-31 renal = system: UO-31 renal
TK-10 renal = system: TK-10 renal
DU-145 prostate = system: DU-145 prostate
SNB-75 CNS = system: SNB-75 CNS
SR leukemia = system: SR leukemia
LOX IMVI melanoma = system: LOX IMVI melanoma
HCT-116 colon = system: HCT-116 colon
HL-60(TB) leukemia = system: HL-60(TB) leukemia
OVCAR-4 ovarian = system: OVCAR-4 ovarian
NCI-H226 lung = system: NCI-H226 lung

COc1c(C(C)=O)c(OCCCCOc2c(C(C)=O)c(OC)c3ccoc3c2OC)c(OC)c2occc12
GI50 (COLO 205 colon): 4.35 µM | TGI (COLO 205 colon): > 100 µM | GI50 (U251 CNS): > 28.1 µM | TGI (U251 CNS): > 100 µM | GI50 (RPMI-8226 leukemia): 0.394 µM | TGI (RPMI-8226 leukemia): 5.57 µM | GI50 (MDA-MB-435): 2.14 µM | TGI (MDA-MB-435): > 100 µM | GI50 (HT29 colon): 4.06 µM | TGI (HT29 colon): > 100 µM | GI50 (SK-MEL-28 melanoma): 2.32 µM | TGI (SK-MEL-28 melanoma): 7.05 µM | GI50 (CAKI-1 renal): 3.3 µM | TGI (CAKI-1 renal): > 100 µM | GI50 (BT-549 breast): 1.61 µM | TGI (BT-549 breast): 5.22 µM | GI50 (PC-3 prostate): 1.69 µM | TGI (PC-3 prostate): > 20.6 µM | GI50 (KM12 colon): 3.11 µM | TGI (KM12 colon): > 100 µM | GI50 (OVCAR-5 ovarian): > 100 µM | TGI (OVCAR-5 ovarian): > 100 µM | GI50 (EKVX NSCLC): 2.48 µM | TGI (EKVX NSCLC): > 100 µM | GI50 (M14 melanoma): 2.55 µM | TGI (M14 melanoma): > 100 µM | GI50 (SNB-19 CNS): > 28.9 µM | TGI (SNB-19 CNS): > 100 µM | GI50 (T-47D breast): 2.02 µM | TGI (T-47D breast): > 26.4 µM | GI50 (MALME-3M melanoma): 2.31 µM | TGI (MALME-3M melanoma): 8.3 µM | GI50 (NCI/ADR-RES ovarian): 1.61 µM | TGI (NCI/ADR-RES ovarian): 4.92 µM | GI50 (SF-539 CNS): > 100 µM | TGI (SF-539 CNS): > 100 µM | GI50 (SK-MEL-2 melanoma): 2.76 µM | TGI (SK-MEL-2 melanoma): > 100 µM | GI50 (SF-295 CNS): 1.35 µM | TGI (SF-295 CNS): > 100 µM | GI50 (SK-MEL-5 melanoma): 1.52 µM | TGI (SK-MEL-5 melanoma): 3.4 µM | GI50 (SW-620 colon): > 100 µM | TGI (SW-620 colon): > 100 µM | GI50 (786-0 renal): > 100 µM | TGI (786-0 renal): > 100 µM | GI50 (HCT-15 colon): 3.88 µM | TGI (HCT-15 colon): > 100 µM | GI50 (SK-OV-3 ovarian): > 100 µM | TGI (SK-OV-3 ovarian): > 100 µM | GI50 (A498 renal): > 100 µM | TGI (A498 renal): > 100 µM | GI50 (A549 NSCLC): 3.35 µM | TGI (A549 NSCLC): > 100 µM | GI50 (NCI-H460 lung): > 24.3 µM | TGI (NCI-H460 lung): > 100 µM | GI50 (K-562 leukemia): 5.45 µM | TGI (K-562 leukemia): > 100 µM | GI50 (OVCAR-3 ovarian): 3.75 µM | TGI (OVCAR-3 ovarian): > 100 µM | GI50 (SF-268 CNS): > 42.1 µM | TGI (SF-268 CNS): > 100 µM | GI50 (SN12C renal): > 100 µM | TGI (SN12C renal): > 100 µM | GI50 (NCI-H23 lung): 4.64 µM | TGI (NCI-H23 lung): > 100 µM | GI50 (OVCAR-8 ovarian): 2.27 µM | TGI (OVCAR-8 ovarian): 7.85 µM | GI50 (UACC-62 melanoma): 2.13 µM | TGI (UACC-62 melanoma): > 100 µM | GI50 (NCI-H522 lung): 2.63 µM | TGI (NCI-H522 lung): > 100 µM | TGI (MDA-MB-231 breast): > 100 µM | GI50 (HOP-62 NSCLC): > 100 µM | TGI (HOP-62 NSCLC): > 100 µM | GI50 (IGROV1 ovarian): 7.58 µM | TGI (IGROV1 ovarian): > 100 µM | GI50 (HS 578T breast): > 100 µM | TGI (HS 578T breast): > 100 µM | GI50 (ACHN renal): 3.6 µM | TGI (ACHN renal): > 100 µM | GI50 (MOLT-4 leukemia): 1.23 µM | TGI (MOLT-4 leukemia): 3.1 µM | GI50 (HCC-2998 colon): > 100 µM | TGI (HCC-2998 colon): > 100 µM | GI50 (MCF7 breast): 3.11 µM | TGI (MCF7 breast): > 100 µM | GI50 (UO-31 renal): 2.34 µM | TGI (UO-31 renal): > 100 µM | GI50 (TK-10 renal): > 23.4 µM | TGI (TK-10 renal): > 100 µM | GI50 (DU-145 prostate): > 100 µM | TGI (DU-145 prostate): > 100 µM | GI50 (SNB-75 CNS): 8.72 µM | TGI (SNB-75 CNS): > 100 µM | GI50 (SR leukemia): 0.258 µM | TGI (SR leukemia): 7.72 µM | GI50 (LOX IMVI melanoma): 4.81 µM | TGI (LOX IMVI melanoma): > 100 µM | GI50 (HCT-116 colon): 3.71 µM | TGI (HCT-116 colon): > 100 µM | GI50 (HL-60(TB) leukemia): 1.85 µM | TGI (HL-60(TB) leukemia): 4.02 µM | GI50 (OVCAR-4 ovarian): 3.39 µM | TGI (OVCAR-4 ovarian): > 100 µM | TGI (NCI-H226 lung): > 100 µM
